# Test system: yeast genes (level of expressed mRNA)
# Test: DNA chip analysis of expressed mRNA of yeast genes after 2 h culture with a toxic chemical substance
# Format: cell-based, Saccharomyces cerevisiae S288C
# Conditions: for The level of expressed mRNA in the presence of chemical substance/ in its absence, gene YDL078C: yeast gene YDL078C; for The level of expressed mRNA in the presence of chemical substance/ (ratio to absence of chemical substance): stress protein genes, DNA chip
# How it was run: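 S. cerevisiae S288C grown at 25° C in YPD; toxicant added at log phase at growth-inhibitory, non-lethal levels for 2 h, untreated cells as control. Poly(A) mRNA reverse-transcribed with Cy3/Cy5-dUTP, hybridized to whole-genome chip at 65° C >12 h; value is fluorescence ratio versus untreated.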
structure (smiles),measurement,setting,value
"S=C([S-])NCCNC(=S)[S-].[Zn+2] [(11), zinc N,N′-ethylenebis(dithiocarbamate)]","The level of expressed mRNA in the presence of chemical substance/ in its absence, gene YDL078C","energy system protein genes, 2 h culture with the chemical, ratio to control without chemical",1.7
same,"The level of expressed mRNA in the presence of chemical substance/ in its absence, gene YDL078C",ratio of DNA chip fluorescence intensity to that without chemical substance,1.7
same,"The level of expressed mRNA in the presence of chemical substance/ (in its absence), gene YDL215C","yeast gene YDL215C, ratio of DNA chip fluorescence intensity to that without chemical substance",0.8
same,The level of expressed mRNA in the presence of chemical substance/The level of expressed mRNA in the absence of chemical substance,yeast gene YDL238C,1.1
same,The level of expressed mRNA in the presence of chemical substance/The level of expressed mRNA in the absence of chemical substance,yeast gene YDR055W,2.2
same,"The level of expressed mRNA in the presence of chemical substance/ (in its absence), gene YDR073W","yeast gene YDR073W, ratio of DNA chip fluorescence intensity to that without chemical substance",1.0
same,"The level of expressed mRNA in the presence of chemical substance/ in its absence, gene YDR079W","yeast gene YDR079W, energy system protein genes, 2 h culture with the chemical, ratio to control without chemical",1.3
same,"The level of expressed mRNA in the presence of chemical substance/ (ratio to absence), gene YDR079W","yeast gene YDR079W, mitochondria-located protein genes, 2 h culture with chemical",1.3
same,The level of expressed mRNA in the presence of chemical substance/The level of expressed mRNA in the absence of chemical substance,yeast gene YDR084C,0.7
same,The level of expressed mRNA in the presence of chemical substance/The level of expressed mRNA in the absence of chemical substance,yeast gene YDR085C,1.7
same,The level of expressed mRNA in the presence of chemical substance/The level of expressed mRNA in the absence of chemical substance,yeast gene YDR104C,1.0
same,The level of expressed mRNA in the presence of chemical substance/The level of expressed mRNA in the absence of chemical substance,yeast gene YDR115W,1.2
same,The level of expressed mRNA in the presence of chemical substance/The level of expressed mRNA in the absence of chemical substance,yeast gene YDR259C,1.2
same,"The level of expressed mRNA in the presence of chemical substance/ (in its absence), gene YDR297W","yeast gene YDR297W, ratio of DNA chip fluorescence intensity to that without chemical substance",1.4
same,The level of expressed mRNA in the presence of chemical substance/The level of expressed mRNA in the absence of chemical substance,yeast gene YDR315C,1.1
same,The level of expressed mRNA in the presence of chemical substance/The level of expressed mRNA in the absence of chemical substance,yeast gene YDR358W,1.0
same,"The level of expressed mRNA in the presence of chemical substance/ (ratio to absence), gene YDR377W","yeast gene YDR377W, mitochondria-located protein genes, 2 h culture with chemical",1.4
same,"The level of expressed mRNA in the presence of chemical substance/ (in its absence), gene YDR387C","yeast gene YDR387C, ratio of DNA chip fluorescence intensity to that without chemical substance",2.0
same,The level of expressed mRNA in the presence of chemical substance/The level of expressed mRNA in the absence of chemical substance,yeast gene YDR388W,1.6
same,The level of expressed mRNA in the presence of chemical substance/The level of expressed mRNA in the absence of chemical substance,yeast gene YDR432W,0.6
same,The level of expressed mRNA in the presence of chemical substance/The level of expressed mRNA in the absence of chemical substance,yeast gene YDR481C,1.2
same,The level of expressed mRNA in the presence of chemical substance/The level of expressed mRNA in the absence of chemical substance,yeast gene YDR510W,1.6
same,The level of expressed mRNA in the presence of chemical substance/ (ratio to absence of chemical substance),yeast gene YEL039C,1.7
same,The level of expressed mRNA in the presence of chemical substance/The level of expressed mRNA in the absence of chemical substance,yeast gene YEL042W,1.6
same,The level of expressed mRNA in the presence of chemical substance/The level of expressed mRNA in the absence of chemical substance,yeast gene YEL066W,1.9
same,"The level of expressed mRNA in the presence of chemical substance/ (in its absence), gene YER015W","yeast gene YER015W, ratio of DNA chip fluorescence intensity to that without chemical substance",1.0
same,The level of expressed mRNA in the presence of chemical substance/The level of expressed mRNA in the absence of chemical substance,yeast gene YER039C,1.2
same,The level of expressed mRNA in the presence of chemical substance/ (ratio to absence of chemical substance),yeast gene YER057C,1.8
same,The level of expressed mRNA in the presence of chemical substance/The level of expressed mRNA in the absence of chemical substance,yeast gene YER107C,0.7
same,The level of expressed mRNA in the presence of chemical substance/The level of expressed mRNA in the absence of chemical substance,yeast gene YER130C,0.9
same,The level of expressed mRNA in the presence of chemical substance/The level of expressed mRNA in the absence of chemical substance,yeast gene YFL028C,1.3
same,The level of expressed mRNA in the presence of chemical substance/The level of expressed mRNA in the absence of chemical substance,yeast gene YFL043C,1.1
same,"The level of expressed mRNA in the presence of chemical substance/ (in its absence), gene YGL035C","yeast gene YGL035C, ratio of DNA chip fluorescence intensity to that without chemical substance",1.3
same,"The level of expressed mRNA in the presence of chemical substance/ (in its absence), gene YGL115W","yeast gene YGL115W, ratio of DNA chip fluorescence intensity to that without chemical substance",1.0
same,The level of expressed mRNA in the presence of chemical substance/ (ratio to absence of chemical substance),yeast gene YGL115W,1.0
same,The level of expressed mRNA in the presence of chemical substance/The level of expressed mRNA in the absence of chemical substance,yeast gene YGL158W,0.2
same,"The level of expressed mRNA in the presence of chemical substance/ (ratio to absence), gene YGL187C","yeast gene YGL187C, mitochondria-located protein genes, 2 h culture with chemical",0.7
same,"The level of expressed mRNA in the presence of chemical substance/ (in its absence), gene YGL205W","yeast gene YGL205W, ratio of DNA chip fluorescence intensity to that without chemical substance",0.4
same,The level of expressed mRNA in the presence of chemical substance/The level of expressed mRNA in the absence of chemical substance,yeast gene YGL229C,1.1
same,"The level of expressed mRNA in the presence of chemical substance/ in its absence, gene YGR062C","yeast gene YGR062C, energy system protein genes, 2 h culture with the chemical, ratio to control without chemical",1.6
same,"The level of expressed mRNA in the presence of chemical substance/ (ratio to absence), gene YGR062C","yeast gene YGR062C, mitochondria-located protein genes, 2 h culture with chemical",1.6
same,"The level of expressed mRNA in the presence of chemical substance/ (in its absence), gene YGR096W","yeast gene YGR096W, ratio of DNA chip fluorescence intensity to that without chemical substance",0.8
same,The level of expressed mRNA in the presence of chemical substance/The level of expressed mRNA in the absence of chemical substance,yeast gene YGR136W,1.3
same,The level of expressed mRNA in the presence of chemical substance/The level of expressed mRNA in the absence of chemical substance,yeast gene YGR189C,1.5
same,The level of expressed mRNA in the presence of chemical substance/The level of expressed mRNA in the absence of chemical substance,yeast gene YGR213C,1.6
same,The level of expressed mRNA in the presence of chemical substance/The level of expressed mRNA in the absence of chemical substance,yeast gene YGR257C,1.2
same,"The level of expressed mRNA in the presence of chemical substance/ (in its absence), gene YGR287C","yeast gene YGR287C, ratio of DNA chip fluorescence intensity to that without chemical substance",1.5
same,"The level of expressed mRNA in the presence of chemical substance/ (in its absence), gene YGR288W","yeast gene YGR288W, ratio of DNA chip fluorescence intensity to that without chemical substance",1.3
same,The level of expressed mRNA in the presence of chemical substance/ (ratio to absence of chemical substance),yeast gene YHL028W,0.7
same,The level of expressed mRNA in the presence of chemical substance/ (ratio to absence of chemical substance),yeast gene YHL046C,0.4
same,The level of expressed mRNA in the presence of chemical substance/The level of expressed mRNA in the absence of chemical substance,yeast gene YHR004C,0.8
same,The level of expressed mRNA in the presence of chemical substance/The level of expressed mRNA in the absence of chemical substance,yeast gene YHR071W,1.8
same,The level of expressed mRNA in the presence of chemical substance/The level of expressed mRNA in the absence of chemical substance,yeast gene YHR139C,3.5
same,The level of expressed mRNA in the presence of chemical substance/The level of expressed mRNA in the absence of chemical substance,yeast gene YHR142W,1.1
same,"The level of expressed mRNA in the presence of chemical substance/ (in its absence), gene YHR210C","yeast gene YHR210C, ratio of DNA chip fluorescence intensity to that without chemical substance",1.5
same,"The level of expressed mRNA in the presence of chemical substance/ (in its absence), gene YIL006W","yeast gene YIL006W, ratio of DNA chip fluorescence intensity to that without chemical substance",1.0
same,The level of expressed mRNA in the presence of chemical substance/ (ratio to absence of chemical substance),yeast gene YIL011W,2.5
